# Test results published in paper PMC6321484, “Deep Eutectic Solvent-Based Ultrahigh Pressure Extraction of Baicalin from Scutellaria baicalensis Georgi” (Molecules, 2018).
# Assay: Equilibrium solubility of baicalin in different solvents (excess compound, HPLC)
# Format: physicochemical
# Conditions: for Solubility of Baicalin: excess compound stirred at 40 °C for 2 h, HPLC
# Experimental: Solubility tests were carried out using distilled water, 70% ethanol and DESs with an excess of the tested compound in a capped bottle and stirred at 40 °C for 2 h. The resulting mixture containing undissolved solid compounds were centrifuged. The supernatant was transferred to a 5 mL-microtube, diluted with methanol and vortexed to a homogeneous solution. The concentration of baicalin in the solution was monitored by HPLC. All solubility tests were performed in triplicate.
compound,measurement,setting,value
O=C(O)[C@H]1O[C@@H](Oc2cc3oc(-c4ccccc4)cc(=O)c3c(O)c2O)[C@H](O)[C@@H](O)[C@@H]1O [baicalin],solubility thermodynamic at 2 h,"40 °C, organic solvent or mixture, thermodynamic from solid, solvent: DES-1, room temperature",22.7 mg/mL
same,Solubility of Baicalin,solvent: 70% Ethanol,1.85 mg/g
same,Solubility of Baicalin,solvent: DES-1 (ChCl-lactic acid 1:1),22.7 mg/g
same,Solubility of Baicalin,solvent: DES-2 (ChCl-glucose 1:1),18.2 mg/g
same,Solubility of Baicalin,solvent: DES-3 (ChCl-glycerol 1:1),12.35 mg/g
same,Solubility of Baicalin,"solvent: DES-4 (ChCl-1,4-butanediol 1:1)",2.25 mg/g
same,Solubility of Baicalin,solvent: DES-5 (ChCl-ethylene glycol 1:1),17.8 mg/g
same,Solubility of Baicalin,solvent: Water,0.18 mg/g
